Data: ChEMBL document CHEMBL1212833, “Protein lysine methyltransferase G9a inhibitors: design, synthesis, and structure activity relationships of 2,4-diamino-7-aminoalkoxy-quinazolines” (J Med Chem, 2010)

Legend:
[1] = target: T1, Histone-lysine N-methyltransferase EHMT2 (Homo sapiens, UniProt Q96KQ7); test: Activity at methyl transferase activity G9a by enzyme coupled S-adenocylehomocystein detection assay
T1 sequence (Q96KQ7 whole entry): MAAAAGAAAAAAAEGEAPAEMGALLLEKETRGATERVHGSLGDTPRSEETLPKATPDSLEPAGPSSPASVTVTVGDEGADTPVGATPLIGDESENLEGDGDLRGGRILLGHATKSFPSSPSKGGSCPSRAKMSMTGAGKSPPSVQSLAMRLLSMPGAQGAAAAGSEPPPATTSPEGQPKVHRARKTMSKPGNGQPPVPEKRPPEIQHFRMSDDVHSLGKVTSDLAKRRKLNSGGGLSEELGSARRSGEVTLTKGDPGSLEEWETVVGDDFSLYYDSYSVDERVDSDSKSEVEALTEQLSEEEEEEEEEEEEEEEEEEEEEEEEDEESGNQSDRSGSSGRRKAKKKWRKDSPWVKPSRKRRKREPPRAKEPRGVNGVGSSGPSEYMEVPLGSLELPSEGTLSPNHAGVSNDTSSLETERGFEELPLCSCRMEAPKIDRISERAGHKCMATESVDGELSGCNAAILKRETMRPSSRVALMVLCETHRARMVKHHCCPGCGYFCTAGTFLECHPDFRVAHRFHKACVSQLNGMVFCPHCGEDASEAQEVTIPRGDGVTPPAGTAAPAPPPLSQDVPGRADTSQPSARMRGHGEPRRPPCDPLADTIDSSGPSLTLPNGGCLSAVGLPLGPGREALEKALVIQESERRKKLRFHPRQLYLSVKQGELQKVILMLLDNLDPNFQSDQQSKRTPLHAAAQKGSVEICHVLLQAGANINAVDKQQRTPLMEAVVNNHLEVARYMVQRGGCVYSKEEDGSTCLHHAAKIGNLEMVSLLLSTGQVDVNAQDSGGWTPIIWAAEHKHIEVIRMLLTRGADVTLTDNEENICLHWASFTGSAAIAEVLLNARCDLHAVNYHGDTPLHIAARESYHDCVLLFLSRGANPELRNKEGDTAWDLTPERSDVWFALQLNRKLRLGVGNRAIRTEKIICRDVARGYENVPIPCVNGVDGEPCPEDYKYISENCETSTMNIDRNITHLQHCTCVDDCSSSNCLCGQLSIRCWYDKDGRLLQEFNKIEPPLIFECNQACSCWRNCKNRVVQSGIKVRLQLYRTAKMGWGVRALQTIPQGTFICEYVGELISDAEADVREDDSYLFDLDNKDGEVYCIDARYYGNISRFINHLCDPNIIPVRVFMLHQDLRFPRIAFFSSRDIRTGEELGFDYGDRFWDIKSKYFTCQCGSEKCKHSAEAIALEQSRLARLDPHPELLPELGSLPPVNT

[2] = target: T1, Histone-lysine N-methyltransferase EHMT2; test: Inhibition of methyl transferase activity of G9a assessed as inhibition of H3K9 methylation by chemiluminescence based oxygen tunneling assay
[3] = target: Protein arginine N-methyltransferase 3 (Homo sapiens, UniProt O60678); test: Activity at methyl transferase activity PRMT3 by enzyme coupled S-adenocylehomocystein detection assay
[4] = target: T2, Histone-lysine N-methyltransferase SETD7 (Homo sapiens, UniProt Q8WTS6); test: Activity at methyl transferase activity SET7/9 by enzyme coupled S-adenocylehomocystein detection assay
T2 sequence (Q8WTS6 whole entry): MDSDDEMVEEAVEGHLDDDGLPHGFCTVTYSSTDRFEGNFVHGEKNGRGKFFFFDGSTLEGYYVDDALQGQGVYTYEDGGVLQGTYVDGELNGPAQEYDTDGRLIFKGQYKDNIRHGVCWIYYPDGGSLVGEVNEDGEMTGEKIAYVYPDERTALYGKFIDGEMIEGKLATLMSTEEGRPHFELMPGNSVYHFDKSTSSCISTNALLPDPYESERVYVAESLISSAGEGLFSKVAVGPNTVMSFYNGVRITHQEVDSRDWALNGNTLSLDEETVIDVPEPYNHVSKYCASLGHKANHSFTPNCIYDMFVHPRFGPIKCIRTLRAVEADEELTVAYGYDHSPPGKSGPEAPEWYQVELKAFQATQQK

[5] = Activity at methyl transferase activity JMJD2E by formaldehyde dehydrogenase-coupled assay
[6] = target: T3, N-lysine methyltransferase KMT5A (Homo sapiens, UniProt Q9NQR1); test: Activity at methyl transferase activity SET8/preSet7 by enzyme coupled S-adenocylehomocystein detection assay
T3 sequence (Q9NQR1 whole entry): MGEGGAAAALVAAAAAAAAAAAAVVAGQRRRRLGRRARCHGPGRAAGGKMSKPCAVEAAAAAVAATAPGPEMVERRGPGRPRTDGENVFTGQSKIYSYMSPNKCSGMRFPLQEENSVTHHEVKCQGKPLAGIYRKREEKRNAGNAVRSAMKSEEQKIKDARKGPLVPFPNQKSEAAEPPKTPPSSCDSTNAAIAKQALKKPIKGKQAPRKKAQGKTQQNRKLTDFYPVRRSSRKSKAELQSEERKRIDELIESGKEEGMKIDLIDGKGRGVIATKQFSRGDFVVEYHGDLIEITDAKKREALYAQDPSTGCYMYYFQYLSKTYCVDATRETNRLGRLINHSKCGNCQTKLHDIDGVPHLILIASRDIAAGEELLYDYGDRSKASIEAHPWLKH

[7] = target: T4, Histone-lysine N-methyltransferase EHMT1 (Homo sapiens, UniProt Q9H9B1); test: Activity at methyl transferase activity GLP by chemiluminescence based oxygen tunneling assay
T4 sequence (Q9H9B1 whole entry): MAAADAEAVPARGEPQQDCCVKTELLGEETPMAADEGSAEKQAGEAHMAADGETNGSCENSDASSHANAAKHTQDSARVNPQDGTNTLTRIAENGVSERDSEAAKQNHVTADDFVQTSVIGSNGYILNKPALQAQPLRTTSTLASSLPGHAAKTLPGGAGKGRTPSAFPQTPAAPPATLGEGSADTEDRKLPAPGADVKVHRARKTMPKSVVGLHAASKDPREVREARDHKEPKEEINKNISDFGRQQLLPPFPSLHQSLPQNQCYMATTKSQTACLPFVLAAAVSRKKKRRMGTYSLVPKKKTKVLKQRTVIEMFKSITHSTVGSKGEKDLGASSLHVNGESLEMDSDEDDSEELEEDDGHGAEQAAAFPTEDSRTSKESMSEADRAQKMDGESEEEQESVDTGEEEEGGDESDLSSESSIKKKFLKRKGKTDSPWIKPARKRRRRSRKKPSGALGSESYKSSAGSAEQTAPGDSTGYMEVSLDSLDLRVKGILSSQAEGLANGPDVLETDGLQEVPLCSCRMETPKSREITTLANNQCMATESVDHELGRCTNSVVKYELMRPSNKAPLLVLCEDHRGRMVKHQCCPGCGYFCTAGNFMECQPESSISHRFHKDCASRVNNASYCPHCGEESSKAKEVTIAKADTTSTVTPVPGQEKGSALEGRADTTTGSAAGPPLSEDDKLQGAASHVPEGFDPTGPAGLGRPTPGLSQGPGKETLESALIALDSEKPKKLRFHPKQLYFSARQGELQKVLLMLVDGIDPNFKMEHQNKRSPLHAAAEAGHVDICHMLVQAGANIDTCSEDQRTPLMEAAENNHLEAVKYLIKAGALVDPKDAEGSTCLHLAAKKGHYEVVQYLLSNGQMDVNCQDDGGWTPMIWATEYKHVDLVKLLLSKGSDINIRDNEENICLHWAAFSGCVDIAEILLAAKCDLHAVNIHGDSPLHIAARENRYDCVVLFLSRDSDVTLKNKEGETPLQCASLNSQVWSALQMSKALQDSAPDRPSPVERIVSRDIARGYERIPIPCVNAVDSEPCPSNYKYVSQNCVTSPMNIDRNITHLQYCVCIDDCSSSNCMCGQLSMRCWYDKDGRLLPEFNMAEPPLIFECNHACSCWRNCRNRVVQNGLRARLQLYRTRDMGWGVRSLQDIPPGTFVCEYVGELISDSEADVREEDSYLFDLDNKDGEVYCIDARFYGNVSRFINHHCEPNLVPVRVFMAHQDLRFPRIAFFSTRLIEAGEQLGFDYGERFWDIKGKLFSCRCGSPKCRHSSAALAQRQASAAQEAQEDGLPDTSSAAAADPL

[8] = target: T4, Histone-lysine N-methyltransferase EHMT1; test: Activity at methyl transferase activity GLP by enzyme coupled S-adenocylehomocystein detection assay

Chain of Protein arginine N-methyltransferase 3 (O60678 whole entry): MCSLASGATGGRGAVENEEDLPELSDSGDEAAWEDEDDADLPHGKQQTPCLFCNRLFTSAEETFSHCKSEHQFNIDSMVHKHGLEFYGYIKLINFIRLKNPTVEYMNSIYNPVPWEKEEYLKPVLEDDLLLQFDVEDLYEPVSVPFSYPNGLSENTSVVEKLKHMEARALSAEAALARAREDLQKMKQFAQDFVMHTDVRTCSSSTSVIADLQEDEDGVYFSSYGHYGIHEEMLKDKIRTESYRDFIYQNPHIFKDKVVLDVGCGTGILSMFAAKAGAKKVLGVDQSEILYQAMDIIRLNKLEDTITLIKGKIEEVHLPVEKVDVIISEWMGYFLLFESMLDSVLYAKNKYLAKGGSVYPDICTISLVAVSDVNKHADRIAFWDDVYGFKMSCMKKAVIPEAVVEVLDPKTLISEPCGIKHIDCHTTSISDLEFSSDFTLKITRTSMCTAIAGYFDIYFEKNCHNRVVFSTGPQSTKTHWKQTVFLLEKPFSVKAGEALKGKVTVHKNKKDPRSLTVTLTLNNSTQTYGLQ

Row | Structure (SMILES) | IC50 [1] | IC50 [2] | further results
1 | COc1cc2c(NC3CCN(C)CC3)nc(N3CCCN(C)CC3)nc2cc1OCCCCCN(C)C | 95 nM |  | 
2 | COc1cc2c(NC3CCN(C)CC3)nc(N3CCCN(C)CC3)nc2cc1OCCOCCN1CCCC1 | 57 nM | 110 nM | 
3 | COc1cc2c(NC3CCN(C)CC3)nc(N3CCCN(C)CC3)nc2cc1OCC1CCCNC1 (centres undefined) | 1500 nM | 5100 nM | 
4 | COc1cc2c(NC3CCN(C)CC3)nc(N3CCCN(C)CC3)nc2cc1OCCCCNC(=O)OC(C)(C)C |  | > 10000 nM | 
5 | COCCCCOc1cc2nc(N3CCCN(C)CC3)nc(NC3CCN(C)CC3)c2cc1OC |  | > 10000 nM | 
6 | COc1cc2nc(N3CCCN(C)CC3)nc(OC3CCN(C)CC3)c2cc1OC |  | > 10000 nM | 
7 | CNCCCOc1cc2nc(N3CCCN(C)CC3)nc(NC3CCN(C)CC3)c2cc1OC | 120 nM |  | 
8 | COc1cc2nc(N3CCCN(C)CC3)nc(NC3CCN(C)C3)c2cc1OC (centres undefined) | 910 nM |  | 
9 | COc1cc2c(NC3CCN(C)CC3)nc(N3CCCN(C)CC3)nc2cc1OCCCCC(N)=O |  | > 10000 nM | 
10 | COc1cc2c(NC3CCN(C)CC3)nc(N3CCCN(C)CC3)nc2cc1OCCN(C)CCN(C)C | 345 nM | 173 nM | 
11 | COc1cc2c(NC3CCN(C)CC3)nc(N3CCCN(C)CC3)nc2cc1OCCCN(C)C |  |  | IC50 [3]: > 40000 nM; IC50 [4]: > 40000 nM; IC50 [5]: > 57000 nM; IC50 [6]: > 40000 nM
12 | CCCN(C)CCCOc1cc2nc(N3CCCN(C)CC3)nc(NC3CCN(C)CC3)c2cc1OC | 51 nM |  | 
13 | COc1cc2c(NC3CCN(C)CC3)nc(N3CCCN(C)CC3)nc2cc1OCCOCCN(C)C |  | 6 nM | IC50 [3]: > 40000 nM; IC50 [4]: > 40000 nM; IC50 [7]: 23 nM; IC50 [5]: > 57000 nM; IC50 [6]: > 40000 nM; IC50 [8]: 15 nM
14 | CCN(CC)CCCOc1cc2nc(N3CCCN(C)CC3)nc(NC3CCN(C)CC3)c2cc1OC | 52 nM |  | 
15 | CNc1nc(N2CCCN(C)CC2)nc2cc(OC)c(OC)cc12 |  | > 10000 nM | 
16 | COc1cc2nc(N3CCCN(C)CC3)nc(N(C)C3CCN(C)CC3)c2cc1OC |  | > 10000 nM | 
17 | COc1cc2c(NC3CCN(C)CC3)nc(N3CCCN(C)CC3)nc2cc1OCCCCN(C)C | 140 nM | 110 nM | 
18 | COc1cc2c(NC3CCN(C)CC3)nc(N3CCCN(C)CC3)nc2cc1OCCCN1CCOCC1 | 880 nM | 780 nM | 
19 | COc1cc2c(NC3CCN(C)CC3)nc(N3CCCN(C)CC3)nc2cc1OCCCCCN | 235 nM | 110 nM | 
